Assay results published in patent US11639350B2, “Heteroaryldihydropyrimidine derivatives and methods of treating hepatitis B infections” (Janssen Pharmaceutica NV, priority 2018, dated 2023).

Experiments:
[1] = Cytotoxicity determination in HepG2.2.15 cells (CCK-8); assay type: cell-based; settings: human, 6 days of compound treatment, CCK-8, highest concentration 100 μM
Protocol: (§1) HBV replication inhibition by the compounds of this invention as well as cytotoxicity determination was determined in cells infected or transfected with HBV, or cells with stably integrated HBV, such as HepG2.2.15 cells (Sells et al. 1987). The method used herein is as follows.
(§2) The HepG2.2.15 cells were seeded into 96-well plate in 2% FBS (Fetal bovine serum) culture medium at the density of 40,000 cells/well and 5,000 cells/well for HBV inhibitory activity and cytotoxicity determination, respectively. After seeding, the cell plates were incubated at 37° C., 5% CO2 overnight. The next day, medium containing compounds were added to treat the cells for 6 days with medium refreshed once in the middle of the treatment. Eight dose points with 3 folds dilution of each compound were adopted and the highest concentration of the compounds was 10 μM and 100 μM for HBV inhibitory activity and cytotoxicity determination, respectively.
After 6 days of compounds treatment, 20 μl CCK-8 (Cell Counting Kit-8 (Tianjin Biolite company)) reagents were added to each well of cytotoxicity assay plates, the plate was incubated at 37° C., 5% CO2 for 2.5 hours and the absorbance at 450 nm wavelength was measured, at the same time the absorbance at 630 nm wavelength was read as reference.
(§3) EC50 and CC50 values are calculated by the GraphPad Prism software and are averages where multiple measurements were made. EC50 values for the other exemplified compounds were either not measured or higher than 1 μM.

HBV = HBV inhibitory activity: HBV DNA in the culture medium of HepG2.2.15 cells by q-PCR; assay type: cell-based; settings: Hepatitis B virus, HepG2.2.15, 144 h, HepG2.2.15 cells, 6 days of compound treatment, HBV DNA in culture medium by q-PCR, highest concentration 10 μM; read-out: EC50
Protocol: as §1, §2
The HBV DAN change in the cell culture medium induced by the compounds was measured by q-PCR (quantitative polymerase chain reaction) method. The HBV DNA in the culture medium was extracted using QIAamp 96 DNA Blood Kit according to the manual and then quantified by q-PCR using the primers and probe in the table below: […]
as §3

For `CCOC(=O)C1=C([C@@H]2CCC[C@H](C(=O)O)CC2)NC(c2nccs2)=NC1c1ccc(F)c(F)c1Cl` (relative stereo) [Compound 302C, (cis)-4-(−6-(2-Chloro-3,4-difluorophenyl)-5-(ethoxycarbonyl)-2-(thiazol-2-yl)-3,6-dihydropyrimidin-4-yl)cycloheptanecarboxylic Acid], the CC50 at 6 days [1] was 10200 nM and the EC50 (HBV) was 50 nM.
In the case of `COC(=O)C1=C(C2CCN(S(=O)(=O)[C@H]3CC[C@H](C(=O)O)C3)CC2)NC(c2nccs2)=NC1c1ccc(F)cc1Cl` (relative stereo) [Compound 311A, (trans)-3-((4-(6-(2-Chloro-4-fluorophenyl)-5-(methoxycarbonyl)-2-(thiazol-2-yl)-3,6-dihydropyrimidin-4-yl)piperidin-1-yl)sulfonyl)-cyclopentanecarboxylic Acid], the CC50 at 6 days [1] is reported as > 100000 nM and the EC50 (HBV) is reported as 89 nM.
With `COC(=O)C1=C(C2CCN(S(=O)(=O)[C@@H]3CC[C@H](C(=O)O)C3)CC2)NC(c2nccs2)=NC1c1ccc(F)cc1Cl` (relative stereo) [Compound 311B, (cis)-3-((4-(6-(2-Chloro-4-fluorophenyl)-5-(methoxycarbonyl)-2-(thiazol-2-yl)-3,6-dihydropyrimidin-4-yl)piperidin-1-yl)sulfonyl)-cyclopentanecarboxylic Acid] the CC50 at 6 days [1] was > 100000 nM and the EC50 (HBV) was 97 nM.
With `COC(=O)C1=C(C2CCN(S(=O)(=O)[C@H]3CC[C@@H](C(=O)O)CC3)CC2)NC(c2nccs2)=NC1c1ccc(F)cc1Cl` (relative stereo) [Compound 313A, (cis)-4-((4-(6-(2-Chloro-4-fluorophenyl)-5-(methoxycarbonyl)-2-(thiazol-2-yl)-3,6-dihydropyrimidin-4-yl)piperidin-1-yl)sulfonyl)-cyclohexanecarboxylic Acid] the CC50 at 6 days [1] was 35000 nM and the EC50 (HBV) was 58 nM.
In the case of `COC(=O)C1=C(C2CCN(S(=O)(=O)[C@H]3CC[C@H](C(=O)O)CC3)CC2)NC(c2nccs2)=NC1c1ccc(F)cc1Cl` (relative stereo) [Compound 313B, (trans)-4-((4-(6-(2-Chloro-4-fluorophenyl)-5-(methoxycarbonyl)-2-(thiazol-2-yl)-3,6-dihydropyrimidin-4-yl)piperidin-1-yl)sulfonyl)-cyclohexanecarboxylic Acid], the CC50 at 6 days [1] is reported as 34600 nM and the EC50 (HBV) is reported as 11 nM.
In the case of `CCOC(=O)C1=C(C2CCN(S(=O)(=O)[C@H]3C[C@H](C(=O)O)C3)CC2)NC(c2nccs2)=NC1c1cccc(F)c1Br` (relative stereo) [Compound 339B, (trans)-3-((4-(6-(2-Bromo-3-fluorophenyl)-5-(ethoxycarbonyl)-2-(thiazol-2-yl)-3,6-dihydropyrimidin-4-yl)piperidin-1-yl)sulfonyl)cyclobutanecarboxylic Acid], the CC50 at 6 days [1] is reported as 13400 nM and the EC50 (HBV) is reported as 10 nM.
In the case of `CCOC(=O)C1=C(C2CCN(S(=O)(=O)[C@H]3C[C@@H](C(=O)O)C3)CC2)NC(c2nccs2)=NC1c1cccc(F)c1Br` (relative stereo) [Compound 339D, (cis)-3-((4-(6-(2-Bromo-3-fluorophenyl)-5-(ethoxycarbonyl)-2-(thiazol-2-yl)-3,6-dihydropyrimidin-4-yl)piperidin-1-yl)sulfonyl)cyclobutanecarboxylic Acid], the CC50 at 6 days [1] is reported as 32700 nM and the EC50 (HBV) is reported as 99 nM.
Work on `CCOC(=O)C1=C(C2CCN(S(=O)(=O)[C@H]3C[C@@H](C(=O)O)C3)CC2)NC(c2nccs2)=NC1c1ccc(F)c(F)c1C` (relative stereo) [Compound 343D, (cis)-3-((4-(6-(3,4-difluoro-2-methylphenyl)-5-(ethoxycarbonyl)-2-(thiazol-2-yl)-3,6-dihydropyrimidin-4-yl)piperidin-1-yl)sulfonyl)cyclobutane-carboxylic Acid] yielded a CC50 at 6 days [1] of 24000 nM and an EC50 (HBV) of 53 nM.
